“And” between values parts separate entries of the source, which are not always exact repeats. Identical values can stand only once. Like-named read-outs stand apart in the source and are kept apart here.
Assays:
[1] = test system: MMP1 expression in primary HTM cells; experiment: Endogenous MMP1 expression in glucocorticoid-treated primary HTM cells (real-time TaqMan PCR); type: cell-based, human
Procedure: To generate primary HTM cells, the trabecular meshwork tissue was dissected from residual cornea rims after surgical corneal transplantation at the University of North Carolina Eye Clinic, Chapel Hill, N.C., United States of America. Trabecular meshworks were isolated from surrounding tissue, cut into small pieces and treated with 1 mg/ml collagenase type IV (Worthington, Lakewood, N.J., United States of America), as previously described (Vittitow et al., Mol Via 2002; 8:32-44). Cells were maintained at 37° C., 7% CO2 in MEM Richter's modification medium (HyClone, Thermo Fisher Scientific, Waltham, Mass., United States of America) supplemented with 20% FBS and 50 ug/ml gentamicin (Gibco Invitrogen, Carlsbad, Calif., United States of America). At confluency, cells were passed and maintained in the same medium but with 10% FBS (complete medium). All cells were used at passages 4 to 6. These outflow pathway cultures include cells from the three distinct regions of the trabecular meshwork plus cells lining the Schlemm's canal (SC). Because most of the cells in these cultures come from the trabecular meshwork they are commonly referred to as trabecular meshwork cells. The cells used in this study were from a person (HTM-109), a person (HTM-95), a person (HTM-106) and a person (HTM-140).
Drug treatments on the HTM cells were conducted in complete media. HTM cells were grown to pre-confluency and exposed to drugs as follows. Treatment with dexamethasone (DEX; Sigma, St. Louis, Mo., United States of America) was conducted at a final concentration of 0.1 uM. DEX was reconstituted in absolute ethanol at 0.1 mM and diluted 1,000-fold into complete media every 48 to 72 hours for the duration of the experiment. Treatment with triamcinolone acetonide (Kenacort-A; Bristol-Myers Squibb, New York, N.Y., United States of America) was performed at a final concentration of 0.1 mg/ml. Kenacort-A 40 mg/ml suspension was well mixed and diluted into complete medium 400-fold at the time of use. The concentration of 0.1 mg/ml triamcinolone acetonide was chosen because intravitreal injections of 1 mg/ml are widely used in the clinical setting, which would result in a lower concentration of the steroid in the aqueous humor. In addition, the concentration of 0.1 mg/ml has been successfully studied in trabecular meshwork cells (Fan B J et al., Invest Ophthalmol Vis Sci. 2008; 49:1886-1897). Treatment with prednisolone was conducted at a final concentration of 200 uM (80 μg/ml). Prednisolone 21-acetate (Sigma) was reconstituted in ethanol at 200 mM (80 mg/ml) as a suspension and mixed well prior dilution of 1,000-fold into the culture medium. The drugs were exposed to the cells for the period of time described in results. Untreated control dishes received the same volume of absolute ethanol (drug vehicle) under identical conditions.
HTM cells were scraped from tissue culture dishes with guanidine thiocyanate buffer (RLT, Qiagen, Valencia, Calif., United States of America). Total RNA was extracted by loading the solution onto a QIA Shredder™ column (Qiagen) and continued by the use of the RNeasy Mini kit with on-column RNase-free DNAse digestion according to manufacturer's recommendations (Qiagen). Purified RNA was eluted in 30 ul RNase-free water and concentration measured with a NanoDrop ND-100 spectrophotometer (Thermo Fisher Scientific). For the tissue, human trabecular meshworks were excised from one week RNAlater (Ambion Applied Biosystems, Austin, Tex., United States of America) immersed anterior segments. One half of the isolated trabecular meshwork tissue was homogenized on 350 μl of RLT and RNA extraction continued as described for the cells. Recoveries were between 1.4 to 2 ug of RNA per human trabecular meshwork. […]

[2] = test system: sheep eyes with triamcinolone-induced ocular hypertension; conditions: for IOP on Day 4 after bilateral sub-Tenon injection: n=4, before virus
Procedure: All animal experiments were performed in accordance with the Association for Research in Vision and Ophthalmology (ARVO) guidelines. A total of 18 healthy (female) sheep (Corriedale breed) between 12 and 24 months of age, and weighing 35 to 40 kg, were selected from a local ranch in Corrientes, Argentina for this study. The eyes and general health of the animals were considered normal by an ophthalmologist and a veterinarian, respectively. Sheep were tagged for individual identification on their ear lobes and herded from pasture whenever it was necessary to 1) topically instill prednisolone, 2) inject a sub-Tenon depot of triamcinolone acetonide, 3) inject adenoviral vectors carrying the MMP1 transgene intracamerally via the cornea, or 4) measure IOP by applanation tonometry. To apply prednisolone, the sheep were guided into a funnel corral ending in a loose-fitting yoke. This arrangement allowed movement and holding of the head by one person while another instilled the drops. To measure IOP with a Perkins tonometer, the sheep were also guided into the funnel corral and then into the neck yoke. For the sub-Tenon injection of triamcinolone, and the trans-corneal injections of adenoviral vectors, sheep were anesthetized topically. Between all procedures, the sheep were free to pasture.
In those sheep in which triamcinolone was used to induce ocular hypertension, the following general protocol was applied. Two drops of proparacaine (0.5%) were topically instilled to the ocular surface. Then, a single 1-ml injection of sterile triamcinolone acetonide (40 mg/ml, or 4%; Bristol-Myers Squibb Co., Princeton, N.J., United States of America) was administered via sub-Tenon injection using a 30G needle inserted 5 mm from the limbus.
For the injections, the distance from the limbus was determined from the width of a 5 mm×30 mm Schirmer strip that was held between the limbus and the injection site. The conjunctiva at the injection site was grasped with fine forceps and an initial oblique conjunctival puncture was made with the needle bevel facing upwards. […] The needle was pushed through Tenon's capsule until the tip reached the sclera (as determined by feel). Care was taken to avoid puncturing the sclera itself. Also, since Tenon's capsule consists of several layers, care was also taken to administer a sub-Tenon (to create a juxta-scleral depot), and not an intra-Tenon's injection. Immediately following the injection the needle was rapidly withdrawn. The volume injected (1 ml) yielded a characteristic 180°-240° quasi-donut-shaped bolus of fluid around the limbus. Each injected eye then received drops of TOBREX® (tobramycin ophthalmic solution, 0.3%, Alcon Laboratories, Inc., Fort Worth, Tex., United States of America).
Animals were led to a funnel corral and their heads were suitably oriented within a neck yoke to enable an ophthalmologist to measure IOP with the Perkins tonometer. Before the IOP measurement, 2 drops of topical 0.5% proparacaine (Alcon Argentina) followed by 2 drops of 0.25% fluorescein were instilled. Two sets of measurements were taken on each eye alternating first one eye and then the other. All IOP measurements were taken between 2 PM and 4 PM every 2 or 3 days. The Perkins tonometry readings were converted to mmHg as described in detail previously (Kass et al., Arch Ophthalmol. 2002; 120:701-713).
Details of the design, construction, characterization and titration of the steroid-inducible MMP1 adenoviruses are provided in Example 2, above. At the time of viral administration, an Eppendorf™ tube containing the frozen virus suspension was thawed in the field as the sheep were immobilized within a narrow passage ending in a yoke. Two drops of topical proparacaine 0.5% (Alcon, Argentina) were instilled on the eyes as an anesthetic. Following this 30 μl of the virus suspension was injected into the eye using a Hamilton syringe with a 28G needle.

[3] = test system: sheep eyes treated with triamcinolone or prednisolone; experiment: IOP in sheep given triamcinolone in one eye and prednisolone in the other, with Ad vector; type: in vivo, sheep (Ovis aries)
Excerpt: After determining the baseline measurement of IOP over the course of several days, two drops of 0.5% prednisolone acetate (Ultracortenol; Novartis Ophthalmics, Hettlingen, Switzerland) was topically instilled 3-times daily at 7 AM, 2 PM, and 7 PM for durations that lasted for 10-15 days depending on the experiment. In some experiments, prednisolone was instilled bilaterally; in others only one eye received the corticosteroid.
The injection procedure took less than 30 seconds.
Additional experiments (employing 2 separate protocols, each on one sheep) tested the effects of the injection of Ad virus carrying active MMP1 transgene on the IOP of contralateral eyes treated with unilateral triamcinolone and unilateral prednisolone. In the first protocol of this set, one eye of a sheep was administered triamcinolone via a sub-Tenon injection two weeks before the start of IOP measurements. The point at which IOP measurements were initiated was designated “Day 0” of the experiment. […] After recording these measurements, thrice daily instillations of prednisolone were begun on eye OS. Three-days later, when the IOP's of both eyes were nearly identical, Ad virus carrying active MMP1 transgene was bilaterally injected into the anterior chambers of the eyes. […] At the point of virus injection, IOP of eye OD had been elevated for 17 days; after virus injection, IOP was reduced up to Day 24. […]

sheep eyes = conditions: cited from earlier work

Structure (SMILES)	MMP1 cDNA levels (RQ) ([1]; 0.1 mg/ml, 12 hours, HTM-109 cells)	downregulation of MMP1 at the transcriptional level ([1]; shorter time periods) [fold]	IOP 15 days after sub-Tenon drug injection ([2]; FIG. 9)	IOP of the fellow eyes on Day 18 ([2]; depot nearly consumed, eyes had also received Ad vectors on Day 4, n=4 each)	IOP on Day 4 after bilateral sub-Tenon injection ([2]; eyes then injected with active MMP1 vector) [mmHg]	IOP on Day 4 after bilateral sub-Tenon injection ([2]; eyes then injected with mutated MMP1 vector) [mmHg]	IOP on Day 4 after unilateral sub-Tenon injection ([2]; n=3, before null Ad injection) [mmHg]	time the depot subsisted in the eye as judged by IOP ([2]; sub-Tenon depot) [days]	time the depots subsisted as determined by the IOP ([2]; sub-Tenon depot)	IOP of the triamcinolone-treated eye on Day 15 ([3]; FIGS. 11 and 12)	IOP of the eye given triamcinolone relative to fellow eye on Day 0 ([3]; sub-Tenon injection two weeks before)	MMP1 expression, RQ values (18S normalized MMP1 cDNA) ([1]; 0.1 μM DEX, 3 days, HTM-109 cells)	MMP1 expression, RQ values (18S normalized MMP1 cDNA) ([1]; 0.1 μM DEX, 6 days, HTM-109 cells)	MMP1 expression, RQ values (18S normalized MMP1 cDNA) ([1]; DEX removed from medium at 3 days, measured at day 6)	downregulation of MMP1 at the transcriptional level ([1]; DEX-treated cells for 6 days) [fold]	MMP1 cDNA levels (RQ) ([1]; 80 μg/ml, 24 hours, HTM-109 cells)	IOP increase (sheep eyes; 0.5% topically three times daily, within 2 weeks)	incidence of intraocular pressure elevation in treated eyes (sheep eyes; 0.5% topically three times daily) [%]	time for IOP to decline to baseline after discontinuation (sheep eyes; in vivo)
CC1(C)O[C@@H]2C[C@H]3[C@@H]4CCC5=CC(=O)C=C[C@]5(C)[C@@]4(F)[C@@H](O)C[C@]3(C)[C@]2(C(=O)CO)O1 [triamcinolone acetonide]	0.42±0.1	2.4	less than 20 mmHg	10.5±0.4 mmHg and 12.4±0.2 mmHg	22.1±0.2	22.6±0.8	25.2±0.4	14 to 20	2-3 weeks	above 25 mmHg	about twice that of eye OS	–	–	–	–	–	–	–	–
C[C@@H]1C[C@H]2[C@@H]3CCC4=CC(=O)C=C[C@]4(C)[C@@]3(F)[C@@H](O)C[C@]2(C)[C@@]1(O)C(=O)CO [DEX, dexamethasone]	–	–	–	–	–	–	–	–	–	–	–	0.03±0.0002	0.002±0.0002	0.03±0.002	500	–	–	–	–
CC(=O)OCC(=O)[C@@]1(O)CC[C@H]2[C@@H]3CCC4=CC(=O)C=C[C@]4(C)[C@H]3[C@@H](O)C[C@@]21C [prednisolone, Prednisolone 21-acetate]	–	6.2	–	–	–	–	–	–	–	–	–	–	–	–	–	0.16±0.02	approximately 2.5 fold	100	1-3 weeks

Source: patent US20160144055A1, “GENE THERAPY VECTOR FOR TREATMENT OF STEROID GLAUCOMA” (priority 2009, published 2016)
